In the NIST ThermoML archive (doi:10.1021/je400679k):
± gives the expanded uncertainty stated by the source.

Test: xn = mol fraction of the nth substance listed
Conditions: 101 kPa, Liquid, Vibrating tube method

Structure (SMILES): CNCCCN [N-methyl-1,3-diaminopropane] + CN(C)CCO
- mass density (283.15 K, x1 = 0.0998): 893.869 ± 0.14 kg/m3
- mass density (283.15 K, x1 = 0.2): 892.03 ± 0.17 kg/m3
- mass density (283.15 K, x1 = 0.3001): 889.578 ± 0.22 kg/m3
- mass density (283.15 K, x1 = 0.4): 886.723 ± 0.26 kg/m3
- mass density (283.15 K, x1 = 0.4997): 883.31 ± 0.32 kg/m3
- mass density (283.15 K, x1 = 0.5993): 879.367 ± 0.38 kg/m3
- mass density (283.15 K, x1 = 0.6999): 875.276 ± 0.45 kg/m3
- mass density (283.15 K, x1 = 0.799): 871.091 ± 0.52 kg/m3
- mass density (283.15 K, x1 = 0.9): 866.659 ± 0.6 kg/m3
- mass density (283.15 K, x1 = 1): 860.459 ± 0.68 kg/m3
- mass density (293.15 K, x1 = 0.0998): 885.469 ± 0.14 kg/m3
- mass density (293.15 K, x1 = 0.2): 883.599 ± 0.18 kg/m3
- mass density (293.15 K, x1 = 0.3001): 881.113 ± 0.22 kg/m3
- mass density (293.15 K, x1 = 0.4): 878.225 ± 0.26 kg/m3
- mass density (293.15 K, x1 = 0.4997): 874.783 ± 0.32 kg/m3
- mass density (293.15 K, x1 = 0.5993): 870.8 ± 0.38 kg/m3
- mass density (293.15 K, x1 = 0.6999): 866.663 ± 0.44 kg/m3
- mass density (293.15 K, x1 = 0.799): 862.415 ± 0.52 kg/m3
- mass density (293.15 K, x1 = 0.9): 857.904 ± 0.59 kg/m3
- mass density (293.15 K, x1 = 1): 851.605 ± 0.67 kg/m3
- mass density (303.15 K, x1 = 0.0998): 876.968 ± 0.14 kg/m3
- mass density (303.15 K, x1 = 0.2): 875.071 ± 0.18 kg/m3
- mass density (303.15 K, x1 = 0.3001): 872.551 ± 0.22 kg/m3
- mass density (303.15 K, x1 = 0.4): 869.634 ± 0.26 kg/m3
- mass density (303.15 K, x1 = 0.4997): 866.166 ± 0.32 kg/m3
- mass density (303.15 K, x1 = 0.5993): 862.148 ± 0.38 kg/m3
- mass density (303.15 K, x1 = 0.6999): 857.97 ± 0.44 kg/m3
- mass density (303.15 K, x1 = 0.799): 853.666 ± 0.51 kg/m3
- mass density (303.15 K, x1 = 0.9): 849.087 ± 0.59 kg/m3
- mass density (303.15 K, x1 = 1): 842.69 ± 0.67 kg/m3
- mass density (313.15 K, x1 = 0.0998): 868.337 ± 0.15 kg/m3
- mass density (313.15 K, x1 = 0.2): 866.42 ± 0.18 kg/m3
- mass density (313.15 K, x1 = 0.3001): 863.872 ± 0.22 kg/m3
- mass density (313.15 K, x1 = 0.4): 860.932 ± 0.26 kg/m3
- mass density (313.15 K, x1 = 0.4997): 857.442 ± 0.32 kg/m3
- mass density (313.15 K, x1 = 0.5993): 853.398 ± 0.37 kg/m3
- mass density (313.15 K, x1 = 0.6999): 849.183 ± 0.44 kg/m3
- mass density (313.15 K, x1 = 0.799): 844.832 ± 0.51 kg/m3
- mass density (313.15 K, x1 = 0.9): 840.193 ± 0.58 kg/m3
- mass density (313.15 K, x1 = 1): 833.715 ± 0.66 kg/m3
- mass density (323.15 K, x1 = 0.0998): 859.574 ± 0.15 kg/m3
- mass density (323.15 K, x1 = 0.2): 857.639 ± 0.18 kg/m3
- mass density (323.15 K, x1 = 0.3001): 855.069 ± 0.22 kg/m3
- mass density (323.15 K, x1 = 0.4): 852.112 ± 0.26 kg/m3
- mass density (323.15 K, x1 = 0.4997): 848.606 ± 0.31 kg/m3
- mass density (323.15 K, x1 = 0.5993): 844.543 ± 0.37 kg/m3
- mass density (323.15 K, x1 = 0.6999): 840.3 ± 0.43 kg/m3
- mass density (323.15 K, x1 = 0.799): 835.912 ± 0.5 kg/m3
- mass density (323.15 K, x1 = 0.9): 831.218 ± 0.57 kg/m3
- mass density (323.15 K, x1 = 1): 824.673 ± 0.65 kg/m3
- mass density (333.15 K, x1 = 0.0998): 850.654 ± 0.15 kg/m3
- mass density (333.15 K, x1 = 0.2): 848.712 ± 0.18 kg/m3
- mass density (333.15 K, x1 = 0.3001): 846.131 ± 0.22 kg/m3
- mass density (333.15 K, x1 = 0.4): 843.164 ± 0.26 kg/m3
- mass density (333.15 K, x1 = 0.4997): 839.647 ± 0.31 kg/m3
- mass density (333.15 K, x1 = 0.5993): 835.571 ± 0.37 kg/m3
- mass density (333.15 K, x1 = 0.6999): 831.314 ± 0.43 kg/m3
- mass density (333.15 K, x1 = 0.799): 826.896 ± 0.49 kg/m3
- mass density (333.15 K, x1 = 0.9): 822.163 ± 0.57 kg/m3
- mass density (333.15 K, x1 = 1): 815.559 ± 0.64 kg/m3
- mass density (343.15 K, x1 = 0.0998): 841.562 ± 0.15 kg/m3
- mass density (343.15 K, x1 = 0.2): 839.622 ± 0.18 kg/m3
- mass density (343.15 K, x1 = 0.3001): 837.042 ± 0.22 kg/m3
- mass density (343.15 K, x1 = 0.4): 834.073 ± 0.26 kg/m3
- mass density (343.15 K, x1 = 0.4997): 830.555 ± 0.31 kg/m3
- mass density (343.15 K, x1 = 0.5993): 826.477 ± 0.37 kg/m3
- mass density (343.15 K, x1 = 0.6999): 822.212 ± 0.43 kg/m3
- mass density (343.15 K, x1 = 0.799): 817.78 ± 0.49 kg/m3
- mass density (343.15 K, x1 = 0.9): 813.022 ± 0.56 kg/m3
- mass density (343.15 K, x1 = 1): 806.37 ± 0.63 kg/m3
- mass density (353.15 K, x1 = 0.0998): 832.286 ± 0.15 kg/m3
- mass density (353.15 K, x1 = 0.2): 830.357 ± 0.19 kg/m3
- mass density (353.15 K, x1 = 0.3001): 827.791 ± 0.22 kg/m3
- mass density (353.15 K, x1 = 0.4): 824.83 ± 0.26 kg/m3
- mass density (353.15 K, x1 = 0.4997): 821.322 ± 0.31 kg/m3
- mass density (353.15 K, x1 = 0.5993): 817.252 ± 0.36 kg/m3
- mass density (353.15 K, x1 = 0.6999): 812.995 ± 0.42 kg/m3
- mass density (353.15 K, x1 = 0.799): 808.563 ± 0.48 kg/m3
- mass density (353.15 K, x1 = 0.9): 803.789 ± 0.55 kg/m3
- mass density (353.15 K, x1 = 1): 797.093 ± 0.62 kg/m3
- mass density (363.15 K, x1 = 0.0998): 822.801 ± 0.16 kg/m3
- mass density (363.15 K, x1 = 0.2): 820.903 ± 0.19 kg/m3
- mass density (363.15 K, x1 = 0.3001): 818.354 ± 0.22 kg/m3
- mass density (363.15 K, x1 = 0.4): 815.413 ± 0.26 kg/m3
- mass density (363.15 K, x1 = 0.4997): 811.93 ± 0.31 kg/m3
- mass density (363.15 K, x1 = 0.5993): 807.876 ± 0.36 kg/m3
- mass density (363.15 K, x1 = 0.6999): 803.636 ± 0.42 kg/m3
- mass density (363.15 K, x1 = 0.799): 799.198 ± 0.48 kg/m3
- mass density (363.15 K, x1 = 0.9): 794.432 ± 0.55 kg/m3
- mass density (363.15 K, x1 = 1): 787.723 ± 0.61 kg/m3
